≈ marks a conversion by molar mass, not a printed value. Where a SMILES comes first, the peptide text is derived from it. Where no end group is shown, it is not given here. [ ]: non-standard residue; d: D form. d(hArg)(Nω,Nω'-(CH2CF3)2) = N[C@H](CCCCNC(=NCC(F)(F)F)NCC(F)(F)F)C(=O)O; Oic = O=C(O)[C@@H]1C[C@@H]2CCCC[C@@H]2N1; Arg(Me2s) = CN=C(NC)NCCC[C@H](N)C(=O)O; Arg(Et) = CCNC(=N)NCCC[C@H](N)C(=O)O; Arg(Me) = CNC(=N)NCCC[C@H](N)C(=O)O; Hyp = O=C(O)[C@@H]1C[C@@H](O)CN1; dTic = O=C(O)[C@H]1Cc2ccccc2CN1; 2Thi = N[C@@H](Cc1cccs1)C(=O)O
Legend:
[1] = test system: Bradykinin-induced Hypotension; experiment: Protection against bradykinin-induced hypotension in rats; format: in vivo, Male Sprague-Dawley rats; conditions: co-administration (50-200 nmol/kg) with bradykinin (0.4 µg/kg) via carotid cannula, anesthetized rats
Experimental: Male Sprague-Dawley rats (200-300 g, Charles River) were anesthetized with 40 mg/kg ip sodium pentobarbital. The left femoral artery and vein were fitted with polyethylene cannulas (Intramedic PE-50) and the left carotid artery was fitted with a PE-20 cannula. […] The femoral arterial cannula was connected to a blood pressure transducer (Statham) and Beckman dynograph for recording systolic and diastolic pressure. The femoral venous cannula was used to administer maintenance anesthesia. […] All cannulas were filled with heparinized (40 U/mL) saline to maintain patency. Rats were placed on a 37°C water blanket and allowed to reach a stable anesthetic plane characterized by a mean arterial blood pressure of ≧90 mm Hg and a positive response to a toe pinch.

Bradykinin Receptor = target: T1, Bradykinin Receptor (Cavia porcellus, UniProt O70526); experiment: Guinea pig ileum bradykinin receptor binding assay; conditions: concentration of analog that reduced the binding of 100 pM [³H]bradykinin by 50%; guinea pig ileum membrane preparation; read-out: IC₅₀
T1 construct: A 5 cm section of the distal ileum was removed, rinsed in cold saline and homogenized; from tissue; host or cells: guinea pig distal ileum, crude membrane pellet
T1 sequence (O70526 1-372): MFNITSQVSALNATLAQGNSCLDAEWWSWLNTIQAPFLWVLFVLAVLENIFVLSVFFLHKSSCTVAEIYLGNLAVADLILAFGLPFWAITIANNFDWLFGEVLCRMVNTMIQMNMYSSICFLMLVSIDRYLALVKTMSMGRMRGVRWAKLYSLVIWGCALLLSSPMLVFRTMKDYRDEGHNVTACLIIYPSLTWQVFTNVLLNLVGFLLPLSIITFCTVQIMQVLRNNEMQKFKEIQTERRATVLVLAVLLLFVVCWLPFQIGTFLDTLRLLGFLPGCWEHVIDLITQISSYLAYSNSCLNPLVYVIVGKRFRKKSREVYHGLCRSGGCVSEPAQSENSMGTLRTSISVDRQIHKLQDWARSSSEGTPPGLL
Experimental: The bradykinin analogs were assayed using a cell-free membrane receptor binding assay described by Innis et al Proc. Natl. Acad. Sci. USA 1981, 78:2630. Male Hartley guinea pigs (400-500g, Charles River) were euthanized by CO₂ asphyxiation. A 5 cm section of the distal ileum was removed, rinsed in cold saline and homogenized in 20 volumes of cold 20 mM TES buffer, pH 6.8, 1mM 1,10-phenanthroline using a Tissumizer (Tekmar) at 75% maximum speed for 12 seconds. The homogenate was centrifuged at 15,000 X g for 25 minutes at 4°C. The crude membrane pellet was washed once in 20 volumes of fresh homogenizing buffer and resuspended in assay buffer (25 mM TES buffer, pH 6.8, 1 mM dithiothreitol, 1 mM 1,10-phenanthroline, 1 µM captopril, 0.014% bacitracin and 0.1% bovine serum albumin) at 100 mL buffer per gram issue. The membrane preparation was quick-frozen in liquid N₂ and stored at -80°C.
The reaction mixture for the receptor binding assay contained bradykinin analog (1-1000 nM), 100 pM [³H]bradykinin (88 Ci/mmol) and 200 µl membrane preparation in a total volume of 500 µl assay buffer. Reactions were incubated at room temperature for 90 minutes and membrane-bound [³H]bradykinin was isolated by filtration through PEI-coated glass fiber filters. The filters were dried and counted for radioactivity in a liquid scintillation counter. Specific binding was calcuated by subtracting the nonspecific binding (determined in a parallel set of assays in the presence of 1 µM unlabeled bradykinin) from the total radioactivity bound to the filters. All incubations were performed in duplicate and the data expressed as % reduction in the specific binding of [³H]bradykinin. The IC₅₀ (the concentration of analog that reduced the binding of 100 pM [³H]bradykinin by 50%) was determined graphically from a plot of % reduction vs. log concentration.

in vitro [2] = experiment: in vitro
Experimental: (§1) The ability of bradykinin antagonists to resist proteolysis was determined by measuring the half-life of the analogs in plasma using HPLC. Rat blood was collected into heparin-containing tubes and centrifuged at 2000 X g for 10 minutes at 4°C to separate the plasma. Plasma samples were supplemented with bradykinin analogs (60 µM) and incubated at 37°C. At various times during incubation, an aliquot was removed and the reaction was stopped with 10% trifluoroacetic acid (TFA). The reaction mixture was applied to a 1 mL C₁₈ solid-phase extraction column (Baker) preconditioned with methanol and 10% TEA in H₂O. The analog was eluted with 3 x 100 µl of 15% acetonitrile (CH₃CN), 85% H₂O containing 0.2% TFA. The eluent was dried in a Speed-Vac concentrator (Savant) and redissolved in 300 µL of mobile phase consisting of various proportions of CH₃CN and H₂O containing 0.2% TEA depending on the analog. The sample was injected onto a Pecosphere® (Perkin-Elmer) 3 µm C₁₈ cartridge column (3.3 x 0.46 cm) and eluted with mobile phase at a flow rate of 1 ml/min using a Waters HPLC system. The analog was monitored by uv absorption at 210 nm and the results analyzed with a Hewlett-Packard integrator. Peak height was used to quantitate the amount of analog present in the sample. Plasma degradation followed first-order kinetics and the t1/2 (the time required for half the sample to be degraded) was determined graphically from a plot of log % analog remaining vs. incubation time.

in vitro [3] = experiment: in vitro; remark: listed apart in the source
Experimental: as §1

[4] = Ferreira et al. 1967; cited from earlier work
[5] = test system: rat peritoneal mast cells; conditions: rat mixed peritoneal cells, 15 minutes, 35°C
Experimental: Mixed peritoneal cells were recovered from 3 or 4 male Sprague-Dawley rats (350 g, Iffa-Credo, France) by intraperitoneal injection of 10 mL of 0.9% NaCl (containing 50 µg/mL heparin). After gentle massage of the abdominal cavity for 1 minute, the peritoneal cells were removed, pooled and centrifuged for 5 minutes at 300 g. After three rinses in Krebs-Ringer Buffer (KRB: 141.9 mM NaCl; 4.7 mM KCl; 1.0 mM CaCl₂, 11.2 mM MgSO₄; 2.5 mM Na₂HPO₄; 0.6 mM KH₂PO₄), the cells were counted under a microscope and diluted in the appropriate volume of KRB to achieve a cell density of about 2 x 10⁶ cells per mL. Aliquots of 0.5 mL were prewarmed with 0.4 mL Ca⁺⁺-free KRB for 5 minutes at 35°C and 0.1 mL of the appropriate solution of the drugs tested was added or its vehicle alone. 15 minutes later, the reaction was stopped by the addition of 2.5 mL ice-cold KRB and chilling on ice.
After centrifugation of the cell suspension, the histamine content of the supernatant was assayed fluorimetrically by the method of Shore et al., (Immunol. 1959, 127:182) omitting the extraction procedure (Excitation 365 nm; Emission 450 nm).
The total histamine content of the cell suspension was determined after sonication (2 minutes - 5 second pulse frequency).
The spontaneous histamine release was subtracted from all the values measured.

Compound | IC50 (Bradykinin Receptor) | half-life at 60 µM (in vitro [2]; human, plasma) | half-life at 60 µM (in vitro [3]; mouse, plasma) | other results
CN=C(N)NCCC[C@H](NC(=O)[C@H](Cc1ccc(OC)cc1)NC(=O)[C@@H](Cc1ccccc1)NC(=O)[C@H](CO)NC(=O)[C@H](Cc1ccccc1)NC(=O)CNC(=O)[C@@H]1C[C@@H](O)CN1C(=O)[C@@H]1CCCN1C(=O)[C@H](CCCNC(=N)N)NC(=O)[C@H](N)CCCCNC(=NCC(F)(F)F)NCC(F)(F)F)C(=O)O [Compound 4, D-hArg(CH₂CF₃)₂-Arg-Pro-Hyp-Gly-Phe-Ser-D-Phe-Tyr(Me)-Arg(Me)] (H-[d(hArg)(Nω,Nω'-(CH2CF3)2)]RP[Hyp]GFS[dF]Y(Me)[Arg(Me)]-OH) |  |  |  | protection against bradykinin-induced hypotension (drop in blood pressure) [1]: reduced or prevented the drop in blood pressure
CN=C(NC)NCCC[C@H](NC(=O)[C@@H]1C[C@@H]2CCCC[C@@H]2N1C(=O)[C@H]1Cc2ccccc2CN1C(=O)[C@H](CO)NC(=O)[C@H](Cc1cccs1)NC(=O)CNC(=O)[C@@H]1C[C@@H](O)CN1C(=O)[C@@H]1CCCN1C(=O)[C@H](CCCNC(=NC)NC)NC(=O)[C@H](N)CCCCNC(=NCC(F)(F)F)NCC(F)(F)F)C(=O)O [Compound 81, D-hArg(CH₂CF₃)₂-Arg(Me₂)-Pro-Hyp-Gly-Thi-Ser-D-Tic-Oic-Arg(Me₂)] | 0.15 nM |  |  | 
CN=C(N)NCCC[C@H](NC(=O)[C@H](Cc1ccccc1)NC(=O)[C@@H](Cc1ccccc1)NC(=O)[C@H](CO)NC(=O)[C@H](Cc1ccccc1)NC(=O)CNC(=O)[C@@H]1C[C@@H](O)CN1C(=O)[C@@H]1CCCN1C(=O)[C@H](CCCNC(=N)N)NC(=O)[C@H](N)CCCCNC(=NCC(F)(F)F)NCC(F)(F)F)C(=O)O [Compound 1, D-hArg(CH₂CF₃)₂-Arg-Pro-Hyp-Gly-Phe-Ser-D-Phe-Phe-Arg(Me)] |  | > 120 min | > 120 min | 
CN=C(N)NCCC[C@H](NC(=O)[C@H](Cc1ccc(OC)cc1)NC(=O)[C@@H](Cc1ccccc1)NC(=O)[C@H](CO)NC(=O)[C@H](Cc1ccccc1)NC(=O)CNC(=O)[C@@H]1C[C@@H](O)CN1C(=O)[C@@H]1CCCN1C(=O)[C@H](CCCNC(=N)N)NC(=O)[C@H](N)CCCNC(=N)N)C(=O)O [Compound 74, D-Arg-Arg-Pro-Hyp-Gly-Phe-Ser-D-Phe-Tyr(Me)-Arg(Me)] (H-[dR]RP[Hyp]GFS[dF]Y(Me)[Arg(Me)]-OH) | 30 nM | > 120 min | > 120 min | 
CN=C(N)NCCC[C@H](NC(=O)[C@@H]1CCCN1C(=O)[C@H]1Cc2ccccc2CN1C(=O)[C@H](CO)NC(=O)[C@H](Cc1ccccc1)NC(=O)CNC(=O)[C@@H]1C[C@@H](O)CN1C(=O)[C@@H]1CCCN1C(=O)[C@H](CCCNC(N)=NC)NC(=O)[C@H](N)CCCCNC(=NCC(F)(F)F)NCC(F)(F)F)C(=O)O [Compound 21, D-hArg(CH₂CF₃)₂-Arg(Me)-Pro-Hyp-Gly-Phe-Ser-D-Tic-Pro-Arg(Me)] (H-[d(hArg)(Nω,Nω'-(CH2CF3)2)][Arg(Me)]P[Hyp]GFS[dTic]P[Arg(Me)]-OH) | 2.2 nM |  |  | 
CN=C(N)NCCC[C@H](NC(=O)[C@@H]1C[C@@H]2CCCC[C@@H]2N1C(=O)[C@H]1Cc2ccccc2CN1C(=O)[C@H](CO)NC(=O)[C@H](Cc1ccccc1)NC(=O)CNC(=O)[C@@H]1C[C@@H](O)CN1C(=O)[C@@H]1CCCN1C(=O)[C@H](CCCNC(N)=NC)NC(=O)[C@H](N)CCCCNC(=NCC(F)(F)F)NCC(F)(F)F)C(=O)O [Compound 91, D-hArg(CH₂CF₃)₂-Arg(Me)-Pro-Hyp-Gly-Phe-Ser-D-Tic-Oic-Arg(Me)] (H-[d(hArg)(Nω,Nω'-(CH2CF3)2)][Arg(Me)]P[Hyp]GFS[dTic][Oic][Arg(Me)]-OH) | 0.05 nM | > 120 min | > 120 min | 
N=C(N)NCCC[C@H](NC(=O)[C@@H]1CCCN1C(=O)[C@H]1Cc2ccccc2CN1C(=O)[C@H](CO)NC(=O)[C@H](Cc1cccs1)NC(=O)CNC(=O)[C@@H]1C[C@@H](O)CN1C(=O)[C@@H]1CCCN1C(=O)[C@H](CCCNC(=N)N)NC(=O)[C@H](N)CCCCNC(=NCC(F)(F)F)NCC(F)(F)F)C(=O)O [Compound 75, D-hArg(CH₂CF₃)₂-Arg-Pro-Hyp-Gly-Thi-Ser-D-Tic-Pro-Arg] (H-[d(hArg)(Nω,Nω'-(CH2CF3)2)]RP[Hyp]G[2Thi]S[dTic]PR-OH) | 1 nM |  |  | 
RPPGFSPFR [bradykinin] |  |  |  | half-life at 60 µM (in vitro [2]): < 5 min; half-life at 60 µM (in vitro [3]): < 5 min; half-life at 60 µM (in vitro [3]; rat, plasma): < 5 min; half-life in the systemic circulation [4]: less than 30 seconds
CN=C(NC)NCCC[C@H](NC(=O)[C@@H]1C[C@@H]2CCCC[C@@H]2N1C(=O)[C@H]1Cc2ccccc2CN1C(=O)[C@H](CO)NC(=O)[C@H](Cc1ccccc1)NC(=O)CNC(=O)[C@@H]1C[C@@H](O)CN1C(=O)[C@@H]1CCCN1C(=O)[C@H](CCCNC(=NC)NC)NC(=O)[C@H](N)CCCCNC(=NCC(F)(F)F)NCC(F)(F)F)C(=O)O [Compound 89, D-hArg(CH₂CF₃)₂-Arg(Me₂)-Pro-Hyp-Gly-Phe-Ser-D-Tic-Oic-Arg(Me₂)] (H-[d(hArg)(Nω,Nω'-(CH2CF3)2)][Arg(Me2s)]P[Hyp]GFS[dTic][Oic][Arg(Me2s)]-OH) | 0.07 nM |  |  | EC50 (histamine release) [5]: 312 µg/mL (≈ 204 µM)
CCN=C(N)NCCC[C@H](NC(=O)[C@H](N)CCCCNC(=NCC(F)(F)F)NCC(F)(F)F)C(=O)N1CCC[C@H]1C(=O)N1C[C@H](O)C[C@H]1C(=O)NCC(=O)N[C@@H](Cc1ccccc1)C(=O)N[C@@H](CO)C(=O)N1Cc2ccccc2C[C@@H]1C(=O)N1[C@H](C(=O)N[C@@H](CCCNC(=NC)NC)C(=O)O)C[C@@H]2CCCC[C@@H]21 [Compound 90, D-hArg(CH₂CF₃)₂-Arg(Et)-Pro-Hyp-Gly-Phe-Ser-D-Tic-Oic-Arg(Me₂)] (H-[d(hArg)(Nω,Nω'-(CH2CF3)2)][Arg(Et)]P[Hyp]GFS[dTic][Oic][Arg(Me2s)]-OH) | 0.04 nM |  |  | EC50 (histamine release) [5]: 216 µg/mL (≈ 141 µM)
CN=C(N)NCCC[C@H](NC(=O)[C@@H]1C[C@@H]2CCCC[C@@H]2N1C(=O)[C@H]1Cc2ccccc2CN1C(=O)[C@H](CO)NC(=O)[C@H](Cc1cccs1)NC(=O)CNC(=O)[C@@H]1C[C@@H](O)CN1C(=O)[C@@H]1CCCN1C(=O)[C@H](CCCNC(N)=NC)NC(=O)[C@H](N)CCCCNC(=NCC(F)(F)F)NCC(F)(F)F)C(=O)O [Compound 22, D-hArg(CH₂CF₃)₂-Arg(Me)-Pro-Hyp-Gly-Thi-Ser-D-Tic-Oic-Arg(Me)] | 0.05 nM | > 120 min | > 120 min | 

From patent EP0472220A1, “Bradykinin antagonists” (SYNTEX (U.S.A.) INC., priority 1990, dated 1992)
